Measured values as given in patent US7009053B2, “Quinoline derivatives as caspase-3 inhibitor, preparation for producing the same and pharmaceutical composition comprising the same” (Yungjin Pharmaceuticals Co., Ltd., priority 2002, dated 2006).
Read-outs that look alike come from different tables or passages of the source.

Columns and labels:
Type in all cases: biochemical
Caspase-8 = target: T1, Caspase-8 (Homo sapiens, UniProt Q14790); assay: Assay of selective inhibitory activity, caspase-8; conditions: read-out: IC50 against caspase-8
T1 construct: purchased BIOMOL Research Laboratories Inc; host or cells: E. coli
T1 sequence (Q14790 217-374 limits assumed): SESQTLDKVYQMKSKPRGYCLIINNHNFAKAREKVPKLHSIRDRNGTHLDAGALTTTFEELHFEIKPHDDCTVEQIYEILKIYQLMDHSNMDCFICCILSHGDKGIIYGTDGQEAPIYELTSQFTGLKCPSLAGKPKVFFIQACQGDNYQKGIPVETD
T1 sequence (Q14790 385-479 limits assumed): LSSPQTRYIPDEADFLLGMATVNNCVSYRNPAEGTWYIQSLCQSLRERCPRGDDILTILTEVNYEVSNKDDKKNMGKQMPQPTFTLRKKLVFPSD
Protocol: (§1) To investigate the selectivity on caspase enzyme subtypes, the inhibitory effects of the compounds of this invention on several other members of the caspase family, caspase-1, 6, 7 and 8 were evaluated.
(§2) After 1 hr incubation at 37° C., the release of AFC (7-amino-4-trifluoromethyl-coumarin) was monitored in a fluorometric plate reader (Victor 1420). The excitation and emission wavelengths were 400 nm and 510 nm, respectively. Isotherms from three assays were calculated by computerized nonlinear regression analysis (GraphPad Prism Program, San Diego, Calif.) to yield IC50 values. Caspase-1, 6, 7 and 8 were purchased from BIOMOL Research Laboratories Inc. (Plymouth Meeting, Pa., USA).
(§3) Coumarin-based fluorogenic substrates for each enzyme were obtained from Sigma/RBI (St. Louis, Mo., USA). The compound used in the assay was 8-amino-4-(3-morpholine-4-yl-propylamino)-quinoline-3-carboxylic acid ethyl ester. The enzymatic activity of caspase-1, 6, 7 or 8 was determined by the same procedures as for the caspase-3 assay, except for enzyme or substrate (Table 2).

[1] = target: T2, human recombinant caspase-3 enzyme (Homo sapiens, UniProt P42574); assay: Enzyme assay of caspase-3 inhibition (fluorogenic Ac-DEVD-AFC substrate)
T2 construct: each cDNA encoding p12 and p17 subunits of caspase-3 was PCR-amplified respectively and subcloned into a pET3-a expression vector; made in house; host or cells: E. coli BL21 (DE3), pET3-a vector
T2 sequence (P42574 29-175 limits assumed): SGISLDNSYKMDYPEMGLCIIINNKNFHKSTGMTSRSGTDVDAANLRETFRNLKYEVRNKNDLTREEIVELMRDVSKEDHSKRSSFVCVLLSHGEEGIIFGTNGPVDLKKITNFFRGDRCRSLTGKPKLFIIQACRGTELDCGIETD
T2 sequence (P42574 176-277 limits assumed): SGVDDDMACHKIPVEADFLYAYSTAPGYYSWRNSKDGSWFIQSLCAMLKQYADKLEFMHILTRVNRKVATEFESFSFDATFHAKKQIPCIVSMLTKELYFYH
Protocol: The active form of human recombinant caspase-3 enzyme was prepared from Escherichia coli (E.coli) heterologous expression system as described previously (Rotonda J. et al., Nat Struct Biol 3(7): 617–25, 1996). Briefly, each cDNA encoding p12 and p17 subunits of caspase-3 was PCR-amplified respectively and subcloned into a pET3-a expression vector (Novagen), which was followed by transfection into E. coli strain BL21 (DE3). The bacterial cultures (0.5 liters for each transfectant) were grown at 37° C. until logarithmic phase of cell growth and isopropyl-1-thio-β-D-galactopyranoside (IPTC) (Pharmacia) was then added to a final concentration of 0.5 mM. After 3 hr of incubation, the bacteria were pelleted and lysed in a lysis buffer (20 mM Tris hydrochloride pH 8.0, 1 mM EDTA, 2 mM dithiothreitol (DTT), 100 mM NaCl, 200 ug/ml of lysozyme) through sonication. After centrifugation, the pellets from each transfectants were dissolved in 6 M urea and were mixed and rapidly diluted 50 fold in 100 mM HEPES/KOH (pH 7.5), 10% sucrose, 0.1% CHAPS, 0.5 M NaCl, 10 mM DTT. The concentration of protein was determined with the Bradford method (Bio-Rad), with bovine serum albumin as the standard. To verify whether expected size of proteins were obtained, the cell lysates from each cDNA transfectants were analyzed on 14% SDS PAGE and visualized with Coomassie blue staining.
200 ul of the following assay solution was contained in each well of 96-well plate: 20 mM HEPES/KOH (pH 7.5), 10% sucrose, 10 mM DTT, 0.2 mM EDTA, 0.1% CHAPS, 200 ng of enzymes, and 2.5 uM of the substrate. The fluorogenic substrate […]-Asp-Glu-Val-Asp-7-amino-4-trifluoromethylcoumarin (Ac-DEVD-AFC) was purchased from Sigma (St Louis, Mo.) and dissolved in DMSO as a 2.5 mM stock solution and kept at −20° C. before use.
After 1 hr incubation at 37° C., the release of AFC (7-amino-4-trifluoromethyl-coumarin) was monitored in a fluorometric plate reader (Victor 1420). The excitation and emission wavelengths were 400 nm and 510 nm, respectively. The inhibitory effects of compounds on enzyme activities were determined with 2, 20 or 200 uM concentrations of the test compound run in triplicate tubes, and isotherms from three assays were calculated by computerized nonlinear regression analysis (GraphPad Prism Program, San Diego, Calif.) to yield IC50 values.

Caspase-1 = target: T3, Caspase-1 (Homo sapiens, UniProt P29466); assay: Assay of selective inhibitory activity, caspase-1; conditions: read-out: IC50 against caspase-1
T3 construct: purchased BIOMOL Research Laboratories Inc; host or cells: E. coli
T3 sequence (P29466 120-297 limits assumed): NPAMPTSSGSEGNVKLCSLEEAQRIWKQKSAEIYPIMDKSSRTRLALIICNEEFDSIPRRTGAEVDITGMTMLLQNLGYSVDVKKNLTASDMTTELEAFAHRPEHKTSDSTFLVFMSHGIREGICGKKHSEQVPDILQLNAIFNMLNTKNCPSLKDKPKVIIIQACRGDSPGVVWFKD
T3 sequence (P29466 317-404 limits assumed): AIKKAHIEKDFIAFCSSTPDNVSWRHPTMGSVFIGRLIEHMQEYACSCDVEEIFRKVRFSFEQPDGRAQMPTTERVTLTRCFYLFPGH
Protocol: as §1, §2, §3

Caspase-7 = target: T4, Caspase-7 (Homo sapiens, UniProt P55210); assay: Assay of selective inhibitory activity, caspase-7; conditions: read-out: IC50 against caspase-7
T4 construct: purchased BIOMOL Research Laboratories Inc; host or cells: E. coli
T4 sequence (P55210 24-198 limits assumed): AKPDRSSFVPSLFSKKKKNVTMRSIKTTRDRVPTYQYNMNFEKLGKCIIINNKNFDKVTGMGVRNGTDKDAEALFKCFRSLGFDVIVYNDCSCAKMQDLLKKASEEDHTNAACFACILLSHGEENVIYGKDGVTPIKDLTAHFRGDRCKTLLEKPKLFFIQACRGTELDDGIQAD
T4 sequence (P55210 207-303 limits assumed): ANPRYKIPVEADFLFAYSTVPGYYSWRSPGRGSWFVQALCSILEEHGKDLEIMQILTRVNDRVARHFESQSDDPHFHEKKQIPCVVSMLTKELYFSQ
Protocol: as §1, §2, §3

Caspase-6 = target: T5, Caspase-6 (Homo sapiens, UniProt P55212); assay: Assay of selective inhibitory activity, caspase-6; conditions: read-out: IC50 against caspase-6
T5 construct: purchased BIOMOL Research Laboratories Inc; host or cells: E. coli
T5 sequence (P55212 24-179 limits assumed): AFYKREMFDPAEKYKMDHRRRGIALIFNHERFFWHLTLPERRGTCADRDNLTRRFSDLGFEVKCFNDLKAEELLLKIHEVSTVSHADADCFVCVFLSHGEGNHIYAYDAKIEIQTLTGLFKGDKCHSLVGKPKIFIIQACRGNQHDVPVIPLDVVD
T5 sequence (P55212 194-293 limits assumed): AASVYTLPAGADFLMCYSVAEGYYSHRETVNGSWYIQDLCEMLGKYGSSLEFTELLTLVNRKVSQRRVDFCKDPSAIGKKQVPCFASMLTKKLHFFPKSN
Protocol: as §1, §2, §3

`CCOC(=O)c1cnc2c(N)cccc2c1NCCCN1CCOCC1` [Example 22, 8-Amino-4-(3-morpholin-4-yl-propylamino)-quinoline-3-carboxylic acid ethyl ester] was tested, and the IC50 (Caspase-8) was ≥ 200 µM, the IC50 ([1]; caspase-3, Table 1, tested at 2, 20 or 200 uM, read-out: IC50) was 13.8 µM and the inhibition at 20 µM ([1]; caspase-3 activity, at 20 uM) was 92.3%. The “inhibitory activity against caspase-3 (in words)” value ([1]; compared to the reference compound) was “superior activity”, the IC50 ([1]; selectivity study, text b424, read-out: IC50 against caspase-3) was 5.6 µM and the IC50 (Caspase-1) was ≥ 200 µM. For the same molecule, the IC50 (Caspase-7) was 14.7 µM and the IC50 (Caspase-6) was ≥ 200 µM.
